Columns and labels:
[1] = biological target: T1, ACO1 (aconitase activity of rat heart homogenate supernatant); test: aconitase activity, absorbance of aconitate at […] nm; format: biochemical; settings: 10 min preincubation, citrate 4 μM, 100 μg protein, Tris-HCl 20 mM pH 7.4, room temperature, no oxidant
T1 construct: crude rat heart homogenate, 12,000 x g supernatant

[2] = biological target: T2, ACO1 (recombinant human ACO1 protein) (Homo sapiens, UniProt P21399); test: surface plasmon resonance (Biacore X100, CM5 chip); format: binding
T2 construct: immobilised on CM5 chip at pH 4.0
T2 sequence (P21399 1-889): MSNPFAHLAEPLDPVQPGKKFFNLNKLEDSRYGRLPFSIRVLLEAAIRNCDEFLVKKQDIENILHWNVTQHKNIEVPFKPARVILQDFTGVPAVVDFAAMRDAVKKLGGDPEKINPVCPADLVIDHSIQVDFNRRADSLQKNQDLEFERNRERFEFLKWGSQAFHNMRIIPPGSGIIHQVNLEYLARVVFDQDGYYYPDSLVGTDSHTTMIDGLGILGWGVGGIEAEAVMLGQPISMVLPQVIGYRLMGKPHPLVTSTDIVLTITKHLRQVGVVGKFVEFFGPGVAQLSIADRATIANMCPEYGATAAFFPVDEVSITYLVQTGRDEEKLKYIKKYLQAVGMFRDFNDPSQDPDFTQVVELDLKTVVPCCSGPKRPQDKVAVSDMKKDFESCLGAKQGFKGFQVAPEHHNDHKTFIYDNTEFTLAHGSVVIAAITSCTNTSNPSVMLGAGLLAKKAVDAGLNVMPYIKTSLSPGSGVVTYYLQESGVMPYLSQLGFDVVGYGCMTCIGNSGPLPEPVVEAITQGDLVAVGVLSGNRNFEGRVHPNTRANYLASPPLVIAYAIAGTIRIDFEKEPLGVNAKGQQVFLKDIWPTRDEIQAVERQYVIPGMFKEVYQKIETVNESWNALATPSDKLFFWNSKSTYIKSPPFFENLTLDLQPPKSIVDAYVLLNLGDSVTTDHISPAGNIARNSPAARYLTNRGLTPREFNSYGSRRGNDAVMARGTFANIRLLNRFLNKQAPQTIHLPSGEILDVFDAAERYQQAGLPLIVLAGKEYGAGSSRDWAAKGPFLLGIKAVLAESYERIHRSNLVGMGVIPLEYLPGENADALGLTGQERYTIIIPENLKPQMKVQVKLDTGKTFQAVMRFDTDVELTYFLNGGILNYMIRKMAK

IC50 [1]: 166 µM
Kd [2]: 198 µM
Structure (SMILES): O=c1cc(-c2ccccc2)oc2cc(O)c(O)c(O)c12 [baicalein, 5,6,7-trihydroxyflavone]

Reference: publication PMC9854573, “Baicalein Attenuates Brain Iron Accumulation through Protecting Aconitase 1 from Oxidative Stress in Rotenone-Induced Parkinson’s Disease in Rats” (Antioxidants, 2022)
